According to patent publication US10570099B2, “Salts of an epidermal growth factor receptor kinase inhibitor” (Celgene CAR LLC, priority 2012, dated 2020):

Columns and labels:
[1] = Hygroscopicity judged from TGA / water retained after drying; assay type: physicochemical
Method: For thermogravimetric analysis (TGA), approximately 5-10 mg of material was accurately weighed into an open aluminium pan and loaded into a simultaneous thermogravimetric/differential thermal analyser (TG/DTA) and held at room temperature. The sample was then heated at a rate of 10° C./min from 25° C. to 300° C. during which time the change in sample weight was recorded along with any differential thermal events (DTA). Nitrogen was used as the purge gas, at a flow rate of 100 cm^3/min.

[2] = Administration to healthy volunteers (single dose PK study); assay type: in vivo, healthy male subjects; conditions: 50 mg dose, Regimen B
Excerpt: The primary objective of the study is to compare the compound 1 pharmacokinetic (PK) profiles of single doses of Form I monohydrobromide formulations with that of the compound 1 free base in healthy adult males.
This is a single centre non-randomised, open-label, single dose study in healthy male subjects. Subjects will be screened for eligibility to participate in the study up to 28 days before dosing. The subjects will be admitted to the clinical unit at approximately 09:00 in the morning on the day prior to dosing (Day-1) and will remain on site until 24 h after each dose. Each subject will attend a follow-up visit 4 to 6 days after the final dose.
One group of 12 subjects will be dosed in an effort to obtain the data described above. Each subject will receive the following formulations in a crossover investigation. Dosing will be separated by at least 7 days. • Regimen A: 150 mg compound 1 (free base) capsule • Regimen B: 50 mg as active compound 2 (Form I HBr) tablet formulation • Regimen C: ≤150 mg as active compound 2 (Form I HBr) tablet formulation
All formulations will be dosed in the morning, following an overnight fast. Subjects will be allowed water up to 2 h before the scheduled dosing time and will be provided with 240 mL of water at 2 h post-dose. […]
Plasma concentration data will be tabulated and plotted for each subject for whom concentrations are quantifiable.

[3] = Slurry in pH 6.2 aqueous medium (conversion to unknown solid form); assay type: physicochemical; conditions: slurry in aqueous pH 6.2 medium, ambient, XRPD
Method: In attempts to characterize this form, as well as establish the rate of conversion to this form while slurrying the material, the following experiments were carried out. Initially, approximately 100 mg of the hydrobromide (1 equiv.) material was slurried in a pH 6.2 aqueous solution at ambient and XRPD analysis was carried out at time points 5 min., 1 hr, 2 hrs, 4 hrs and 8 hrs. Further analysis was then also carried out on the converted material.

[4] = Intrinsic dissolution of compressed discs; assay type: physicochemical; conditions: early time points
Method: A Sotax AT7 dissolution bath (USP 2, EP 2 apparatus) was used for the dissolution study in which paddles were used to stir the media. All tests were carried out at 37° C. and a paddle speed of 100 rpm.
(§1) Approximately 100-120 mg of each form was compressed into discs by placing the material into a die (diameter: 13 mm) and compressing the die under 5 tons of pressure in a hydraulic press for ca. 2 minutes. A Sotax AT7 (conformed to EP2 and USP2) dissolution instrument was used containing paddles to stir the media at 100 rpm. Dissolution media of pH 3 (1% SDS) and pH 4.5 (1% SDS) were prepared using citrate/phosphate buffer. All materials were tested in 750 ml of the buffer medium. Discs were added at time=0 seconds and allowed to sink to the bottom of the dissolution vessel before stirring began. ca. 1 ml aliquots of media were extracted from the dissolution vessels at times 1, 5, 10, 15, 30, 60, 120, 240 minutes and 24 hours, and tested for dissolved salt concentration by HPLC-UV. The dissolution tests were carried out in duplicate. For both dissolution media, the peak areas for the initial time points (up to 15 minutes), fell below the limit of quantification, however, when plotting Dissolution rate vs. time, the steepest part of the curve occurs during these early time points.
as §1, with “material” for “each form”, “API” for “dissolved salt”

[5] = 1 week stability study (XRPD and HPLC); assay type: physicochemical; conditions: 1 week, listed as hydrobromide salt
Method: (§2) Resulting solids were analysed by XRPD and HPLC to establish if any changes had occurred.
as §2
The resulting solids were analysed by XRPD and HPLC to establish if any changes had occurred.

[6] = Dynamic vapour sorption (DVS); assay type: physicochemical
Method: For dynamic vapour sorption (DVS), approximately 10-20 mg of sample was placed into a wire mesh vapour sorption balance pan and loaded into a DVS-1 dynamic vapour sorption balance by Surface Measurement Systems. The sample was subjected to a ramping profile from 20-90% relative humidity (RH) at 10% increments, maintaining the sample at each step until a stable weight had been achieved (99.5% step completion). After completion of the sorption cycle, the sample was dried using the same procedure, but all the way down to 0% RH and finally taken back to the starting point of 20% RH. The weight change during the sorption/desorption cycles were plotted, allowing for the hygroscopic nature of the sample to be determined.

[7] = 40° C./75% RH, closed (crimped) vial

In the case of `Br.C=CC(=O)Nc1cccc(Nc2nc(Nc3ccc(N4CCN(C(C)=O)CC4)cc3OC)ncc2C(F)(F)F)c1` [Form I hydrobromide salt], the “hygroscopicity (TGA, water retained at ambient conditions)” value [1] is reported as “slightly hygroscopic”, the patient-to-patient variability [2] is reported as “less patient-to-patient variability” and the “time of conversion to the unknown solid form” value [3] is reported as 2 to 4 h. The intrinsic dissolution value ([4]; pH 3.0 (1% SDS), tablet 1) was “approximately 0.35 mg/cm^2/min”, the intrinsic dissolution value ([4]; pH 3.0 (1% SDS), tablet 2) was “approximately 0.35 mg/cm^2/min” and the intrinsic dissolution value ([4]; pH 4.5 (1% SDS), tablet 1) was “approximately 0.27 mg/cm^2/min”. For the same compound, the intrinsic dissolution value ([4]; pH 4.5 (1% SDS), tablet 2) was about 0.28 mg/cm^2/min, the “HPLC purity after storage” value [5, 7] was 97.2% and the XRPD after storage [5, 7] was “No polymorphic form changes observed”. For the same compound, the “HPLC purity after storage” value ([5]; 40° C./75% RH, open vial) was 97.2%, the XRPD after storage ([5]; 40° C./75% RH, open vial) was “No polymorphic form changes observed” and the “HPLC purity after storage” value ([5]; 80° C., open vial) was 97.1%. The XRPD after storage ([5]; 80° C., open vial) was “No polymorphic form changes observed”, the “post DVS XRPD analysis (polymorphic form)” value ([6]; after DVS cycles, listed as hydrobromide salt) was “remain consistent” and the “water uptake (DVS)” value ([6]; between 20 and 70% RH) was 0.97%.
